Experimental data reported in PMC10952342 (2023).

Tests used:
[1] = test system: c-Myc (DNA, G4) TGAGGGTGGGTAGGGTGGGTAA; experiment: emission titration (580 nm); settings: K+ 100 mM, lithium cacodylate pH 7.3
[2] = test system: HTG4 (DNA, G4) TTGGGTTAGGGTTAGGGTTAGGGA; experiment: emission titration (580 nm); settings: K+ 100 mM, lithium cacodylate pH 7.3
[3] = test system: HTelo (DNA, G4) AGGGTTAGGGTTAGGGTTAGGG; experiment: emission titration (580 nm); settings: lithium cacodylate pH 7.3
[4] = test system: c-Myc (DNA, G4) TGAGGGTGGGTAGGGTGGGTAA; experiment: CD melting (265 nm); settings: K+ 1 mM; 10 mM lithium cacodylate; 5 μM DNA, 10 μM compound
[5] = test system: HTelo (DNA, G4) AGGGTTAGGGTTAGGGTTAGGG; experiment: CD melting (295 nm); settings: Na+ 100 mM; 10 mM lithium cacodylate; 5 μM DNA, 10 μM compound

| Ka [1] | Ka [2] | Ka ([3]; K+ 100 mM) | Ka ([3]; Na+ 100 mM) | ΔTm [4] [°C] | ΔTm [5] [°C] | Ka ([1]; 1 μM complex) | Ka ([2]; 1 μM complex) | Ka ([3]; K+ 100 mM, 1 μM complex) | Ka ([3]; Na+ 100 mM, 1 μM complex) | SMILES |
| --- | --- | --- | --- | --- | --- | --- | --- | --- | --- | --- |
| 14.43 ± 7.18 x 10^5 M^-1 | 22.04 ± 9.23 x 10^5 M^-1 | 12.5 ± 0.30 x 10^5 M^-1 | 3.5 ± 1.01 x 10^5 M^-1 |  |  |  |  |  |  | CN(C)CCOc1c[c-]c(-c2cccc(-c3ccccn3)n2)cc1.OCC[S-].[Pt+2] |
| 17.61 ± 2.87 x 10^5 M^-1 | 14.89 ± 4.37 x 10^5 M^-1 | 10.45 ± 1.13 x 10^5 M^-1 | 6.22 ± 0.34 x 10^5 M^-1 | 30 | 3.6 |  |  |  |  | CN(C)CCOc1c[c-]c(-c2cccc(-c3ccccn3)n2)cc1.[Cl-].[Pt+2] |
| 15.04 ± 1.18 x 10^5 M^-1 | 16.35 ± 2.30 x 10^5 M^-1 | 4.85 ± 0.66 x 10^5 M^-1 | 4.5 ± 1.54 x 10^5 M^-1 |  |  |  |  |  |  | OCC[S-].[Pt+2].[c-]1cc(OCCN2CCCCC2)ccc1-c1cccc(-c2ccccn2)n1 |
| 6.09 ± 0.91 x 10^5 M^-1 | 4.45 ± 0.58 x 10^5 M^-1 | 3.92 ± 0.13 x 10^5 M^-1 | 1.46 ± 0.05 x 10^5 M^-1 |  |  |  |  |  |  | OCC[S-].[Pt+2].[c-]1cc(OCCN2CCOCC2)ccc1-c1cccc(-c2ccccn2)n1 |
|  |  |  |  | 28.3 | 2.8 | 21.65 ± 0.64 x 10^5 M^-1 | 19.18 ± 3.60 x 10^5 M^-1 | 11.77 ± 1.69 x 10^5 M^-1 | 5.06 ± 0.59 x 10^5 M^-1 | [Cl-].[Pt+2].[c-]1cc(OCCN2CCCCC2)ccc1-c1cccc(-c2ccccn2)n1 |
| 13.68 ± 1.56 x 10^5 M^-1 | 3.55 ± 0.92 x 10^5 M^-1 | 2.95 ± 0.34 x 10^5 M^-1 | 1.47 ± 0.08 x 10^5 M^-1 |  |  |  |  |  |  | [Cl-].[Pt+2].[c-]1cc(OCCN2CCOCC2)ccc1-c1cccc(-c2ccccn2)n1 |
